Laboratory results as given in publication PMC5681660, “Reduced hepatitis B and D viral entry using clinically applied drugs as novel inhibitors of the bile acid transporter NTCP” (Scientific Reports, 2017).
Structures can show the parent of a compound that is named as a salt. Where two headings read alike, the source gives them in different places.

Tests used:
human NTCP [1] = biological target: T1, human NTCP (Homo sapiens, UniProt Q14973); experiment: Screening fluorescent competitive Myrcludex B-FITC binding assay (96-well, 10 µM drug)
T1 sequence (Q14973 1-349): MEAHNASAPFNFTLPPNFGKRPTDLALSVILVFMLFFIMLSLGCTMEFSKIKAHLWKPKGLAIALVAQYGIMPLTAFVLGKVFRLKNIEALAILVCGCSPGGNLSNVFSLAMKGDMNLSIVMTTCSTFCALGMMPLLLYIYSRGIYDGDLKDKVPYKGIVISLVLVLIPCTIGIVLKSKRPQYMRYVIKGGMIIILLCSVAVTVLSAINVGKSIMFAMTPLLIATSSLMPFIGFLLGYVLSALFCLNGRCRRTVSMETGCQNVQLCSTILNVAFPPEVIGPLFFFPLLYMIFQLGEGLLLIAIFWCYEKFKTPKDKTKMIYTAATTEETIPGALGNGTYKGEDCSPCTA

human NTCP [2] = biological target: T1, human NTCP; experiment: Screening taurocholate uptake assay (96-well, [14C]taurocholate, 10 µM drug)
[3] = Prestwick library screen, 10 µM drug, B-score of Myrcludex B-FITC binding
[4] = Prestwick library screen, 10 µM drug, B-score of taurocholate uptake
[5] = combined ranking from functional and binding assay B-scores
[6] = screen, 10 µM drug, Myrcludex B-FITC binding
[7] = combined ranking from functional and binding screening assays
[8] = screen, 10 µM drug, taurocholate uptake
[9] = Prestwick library screen, Myrcludex B-FITC binding, 10 µM drug
[10] = Prestwick library screen, taurocholate uptake, 10 µM drug
[11] = ranking score beside the functional and binding assay B-scores of the screen

Cl.NCC(O)c1ccc(O)cc1 (racemic) [(+,-)-Octopamine hydrochloride]
B-score binding assay (human NTCP [1]; [3]): 0.069 | B-score functional assay (human NTCP [2]; [4]): 2.044 | Ranking score (human NTCP [2]; [5]): 930.549

NCC(CC(=O)O)c1ccc(Cl)cc1 (racemic) [Baclofen (R,S)]
B-score binding assay (human NTCP [1]; [3]): 0.531 | B-score functional assay (human NTCP [2]; [4]): 2.955 | Ranking score (human NTCP [2]; [5]): 1069.07

COC(=O)C1=C(C)NC(C)=C(C(=O)O[C@@H]2CCCN(Cc3ccccc3)C2)[C@@H]1c1cccc([N+](=O)[O-])c1.Cl (racemic) [Benidipine hydrochloride]
B-score binding assay (human NTCP [1]; [6]): -0.032 | Ranking score (human NTCP [2]; [7]): 426.727 | B-score functional assay (human NTCP [2]; [8]): -0.759

CC(C)(S)C(N)C(=O)O (racemic) [D,L-Penicillamine]
B-score binding assay (human NTCP [1]; [3]): 0.477 | B-score functional assay (human NTCP [2]; [4]): 0.176 | Ranking score (human NTCP [2]; [5]): 845.872

OCC(O)CN1CCN(c2ccccc2)CC1 (racemic) [Dropropizine (R,S)]
B-score binding assay (human NTCP [1]; [9]): 0.054 | B-score functional assay (human NTCP [2]; [10]): 0.232 | Ranking score (human NTCP [2]; [11]): 761.407

COCCc1ccc(OCC(O)CNC(C)C)cc1.COCCc1ccc(OCC(O)CNC(C)C)cc1.O=C(O)C(O)C(O)C(=O)O (racemic) [Metoprolol-(+,-) (+)-tartrate salt]
B-score binding assay (human NTCP [1]; [6]): -0.835 | Ranking score (human NTCP [2]; [7]): 295.567 | B-score functional assay (human NTCP [2]; [8]): -0.726

CN1CCC2(C)c3cc(O)ccc3N(C)C12.O=C(O)/C=C/C(=O)O (single isomer, unassigned; (-)) [(-)-Eseroline fumarate salt]
B-score binding assay (human NTCP [1]; [9]): 0.233 | B-score functional assay (human NTCP [2]; [10]): 0.19 | Ranking score (human NTCP [2]; [11]): 803.481

CC(C)NCC(O)c1ccc(O)c(O)c1.Cl (single isomer, unassigned; (-)) [(-)-Isoproterenol hydrochloride]
B-score binding assay (human NTCP [1]; [3]): 0.852 | B-score functional assay (human NTCP [2]; [4]): 0.061 | Ranking score (human NTCP [2]; [5]): 845.999

Clc1cnccn1 [2-Chloropyrazine]
B-score binding assay (human NTCP [1]; [9]): -0.068 | B-score functional assay (human NTCP [2]; [10]): 1.648 | Ranking score (human NTCP [2]; [11]): 812.047

C[C@]12CC[C@@H](O)C[C@H]1CC[C@@H]1[C@@H]2CC[C@]2(C)C(=O)CC[C@@H]12 [3-alpha-Hydroxy-5-beta-androstan-17-one]
B-score binding assay (human NTCP [1]): 0.051 | B-score functional assay (human NTCP [2]): -2.764 | Ranking score (human NTCP [2]): 235.83

Nc1ccc(C(=O)O)c(O)c1 [4-aminosalicylic acid]
B-score binding assay (human NTCP [1]; [6]): -0.683 | Ranking score (human NTCP [2]; [7]): 360.074 | B-score functional assay (human NTCP [2]; [8]): -0.405

O=c1[nH]cc(F)c(=O)[nH]1 [5-fluorouracil]
B-score binding assay (human NTCP [1]; [6]): -1.388 | Ranking score (human NTCP [2]; [7]): 327.242 | B-score functional assay (human NTCP [2]; [8]): -0.016

c1coc(CNc2ncnc3nc[nH]c23)c1 [6-Furfurylaminopurine]
B-score binding assay (human NTCP [1]; [9]): -0.434 | B-score functional assay (human NTCP [2]; [10]): 2.357 | Ranking score (human NTCP [2]; [11]): 696.25

CC(C)NC[C@@H](O)c1ccc(O)c(O)c1.O=C(O)C(O)C(O)C(=O)O [(+)-Isoproterenol (+)-bitartrate salt]
B-score binding assay (human NTCP [1]; [9]): -0.368 | B-score functional assay (human NTCP [2]; [10]): 2.072 | Ranking score (human NTCP [2]; [11]): 708.011

Nc1nc(=O)n([C@@H]2CS[C@H](CO)O2)cc1F [(-)-Emtricitabine]
B-score binding assay (human NTCP [1]; [3]): 0.464 | B-score functional assay (human NTCP [2]; [4]): 1.373 | Ranking score (human NTCP [2]; [5]): 1006

C[C@@]12N[C@@H](Cc3ccccc31)c1ccccc12.O=C(O)/C=C\C(=O)O [(-)-MK 801 hydrogen maleate]
B-score binding assay (human NTCP [1]; [9]): 0.115 | B-score functional assay (human NTCP [2]; [10]): -0.004 | Ranking score (human NTCP [2]; [11]): 690.814

COc1ccc2cc([C@@H](C)C(=O)[O-])ccc2c1.[Na+] [(R) -Naproxen sodium salt]
B-score binding assay (human NTCP [1]): 0.921 | B-score functional assay (human NTCP [2]): -0.341 | Ranking score (human NTCP [2]): 667.638

CC(C)NC[C@@H](O)COc1ccc(CC(N)=O)cc1 [(R)-(+)-Atenolol]
B-score binding assay (human NTCP [1]; [9]): 0.009 | B-score functional assay (human NTCP [2]; [10]): 0.006 | Ranking score (human NTCP [2]; [11]): 655.981

CNCC[C@@H](Oc1cccc2ccccc12)c1cccs1.Cl [(R)-Duloxetine hydrochloride]
B-score binding assay (human NTCP [1]): -0.619 | B-score functional assay (human NTCP [2]): 1.079 | Ranking score (human NTCP [2]): 610.37

CC(C)NC[C@@H](O)COc1cccc2ccccc12.Cl [(R)-Propranolol hydrochloride]
B-score binding assay (human NTCP [1]): 0.252 | B-score functional assay (human NTCP [2]): 1.016 | Ranking score (human NTCP [2]): 935.855

CC(C)NC[C@H](O)COc1ccc(CC(N)=O)cc1 [(S)-(-)-Atenolol]
B-score binding assay (human NTCP [1]; [6]): -0.394 | Ranking score (human NTCP [2]; [7]): 412.97 | B-score functional assay (human NTCP [2]; [8]): -0.386

C[C@H]1O[C@H](O[C@H]2[C@H](O)[C@@H](O)[C@@H](O[C@H]3[C@H](O)[C@@H](O)C(O)O[C@@H]3CO)O[C@@H]2CO)[C@H](O)[C@@H](O)[C@@H]1N[C@H]1C=C(CO)[C@@H](O)[C@H](O)[C@H]1O (stereo partly drawn) [Acarbose]
B-score binding assay (human NTCP [1]; [9]): -0.109 | B-score functional assay (human NTCP [2]; [10]): 1.632 | Ranking score (human NTCP [2]; [11]): 792.136

CCCC(=O)Nc1ccc(OCC(O)CNC(C)C)c(C(C)=O)c1 (stereo not drawn) [Acebutolol hydrochloride]
B-score binding assay (human NTCP [1]; [3]): 0.049 | B-score functional assay (human NTCP [2]; [4]): 1.681 | Ranking score (human NTCP [2]; [5]): 904.34

O=C(O)COC(=O)Cc1ccccc1Nc1c(Cl)cccc1Cl [Aceclofenac]
B-score binding assay (human NTCP [1]; [6]): -0.456 | Ranking score (human NTCP [2]; [7]): 377.221 | B-score functional assay (human NTCP [2]; [8]): -0.535

Cn1c(=O)c2c(ncn2CC(=O)O)n(C)c1=O [Acefylline]
B-score binding assay (human NTCP [1]; [3]): 0.607 | B-score functional assay (human NTCP [2]; [4]): 0.41 | Ranking score (human NTCP [2]; [5]): 910.022

COc1ccc2c(c1)c(CC(=O)OCC(=O)O)c(C)n2C(=O)c1ccc(Cl)cc1 [Acemetacin]
B-score binding assay (human NTCP [1]; [9]): 0.865 | B-score functional assay (human NTCP [2]; [10]): 0.011 | Ranking score (human NTCP [2]; [11]): 813.791

CC(=O)CC(c1ccc([N+](=O)[O-])cc1)c1c(O)c2ccccc2oc1=O (stereo not drawn) [Acenocoumarol]
B-score binding assay (human NTCP [1]; [3]): 0.383 | B-score functional assay (human NTCP [2]; [4]): 0.873 | Ranking score (human NTCP [2]; [5]): 950.096

CC(=O)Nc1nnc(S(N)(=O)=O)s1 [Acetazolamide]
B-score binding assay (human NTCP [1]; [9]): -0.137 | B-score functional assay (human NTCP [2]; [10]): 0.532 | Ranking score (human NTCP [2]; [11]): 696.956

CC(=O)c1ccc(S(=O)(=O)NC(=O)NC2CCCCC2)cc1 [Acetohexamide]
B-score binding assay (human NTCP [1]; [3]): 1.192 | B-score functional assay (human NTCP [2]; [4]): 0.057 | Ranking score (human NTCP [2]; [5]): 875.07

CC(=O)c1ccc2c(c1)N(CCCN(C)C)c1ccccc1S2.O=C(O)/C=C\C(=O)O [Acetopromazine maleate salt]
B-score binding assay (human NTCP [1]; [6]): -2.054 | Ranking score (human NTCP [2]; [7]): 331.723 | B-score functional assay (human NTCP [2]; [8]): 0.92

CC(=O)Oc1ccccc1C(=O)Oc1ccccc1C(=O)O [Acetylsalicylsalicylic acid]
B-score binding assay (human NTCP [1]; [9]): -0.007 | B-score functional assay (human NTCP [2]; [10]): 0.347 | Ranking score (human NTCP [2]; [11]): 734.743

Cc1cnc(C(=O)O)c[n+]1[O-] [Acipimox]
B-score binding assay (human NTCP [1]; [3]): 0.142 | B-score functional assay (human NTCP [2]; [4]): 0.91 | Ranking score (human NTCP [2]; [5]): 894.262

COc1cc(C)c(/C=C/C(C)=C/C=C/C(C)=C/C(=O)O)c(C)c1C [Acitretin]
B-score binding assay (human NTCP [1]; [6]): -1.766 | Ranking score (human NTCP [2]; [7]): 302.82 | B-score functional assay (human NTCP [2]; [8]): 0.046

CC(=O)Nc1ccc(CC(=O)O)cc1 [Actarit]
B-score binding assay (human NTCP [1]; [9]): 1.648 | B-score functional assay (human NTCP [2]; [10]): -0.304 | Ranking score (human NTCP [2]; [11]): 719.277

Nc1nc2c(ncn2COCCO)c(=O)[nH]1 [Acyclovir]
B-score binding assay (human NTCP [1]; [9]): 0 | B-score functional assay (human NTCP [2]; [10]): 0.026 | Ranking score (human NTCP [2]; [11]): 658.696
